According to ChEMBL document CHEMBL1129930, “Analogues of methotrexate in rheumatoid arthritis. 2. Effects of 5-deazaaminopterin, 5,10-dideazaaminopterin, and analogues on type II collagen-induced arthritis in mice” (J Med Chem, 1997):

Key:
Mus musculus [1] = assay: Incidence of disease (mouse type II collagen) was scored as the percentage of animals within each experimental group that exhibited joint or limb inflammation on day 30 at intraperitoneal dose of 3 mg/kg; type: functional
Mus musculus [2] = assay: Incidence of disease (mouse type II collagen) was scored as the percentage of animals within each experimental group that exhibited joint or limb inflammation on day 30 at intraperitoneal dose of 6 mg/kg (1 animal died); type: functional
Mus musculus [3] = assay: Tested for antiinflammatory activity on mouse type II collagen arthritis as Paw swelling of all animals in each group on day 30 at intraperitoneal dose of 0.38 mg/kg; type: functional
Mus musculus [4] = assay: Incidence of disease (mouse type II collagen) was scored as the percentage of animals within each experimental group that exhibited joint or limb inflammation on day 23 at intraperitoneal dose of 6 mg/kg (1 animal died); type: functional
Mus musculus [5] = assay: Incidence of disease (mouse type II collagen) was scored as the percentage of animals within each experimental group that exhibited joint or limb inflammation on day 23 at intraperitoneal dose of 0.38 mg/kg; type: functional
Mus musculus [6] = assay: Incidence of disease (mouse type II collagen) was scored as the percentage of animals within each experimental group that exhibited joint or limb inflammation on day 23 at intraperitoneal dose of 0.75 mg/kg; type: functional
Mus musculus [7] = assay: Incidence of disease (mouse type II collagen) was scored as the percentage of animals within each experimental group that exhibited joint or limb inflammation on day 44 at intraperitoneal dose of 6 mg/kg (1 animal died); type: functional
Mus musculus [8] = assay: Incidence of disease (mouse type II collagen) was scored as the percentage of animals within each experimental group that exhibited joint or limb inflammation on day 30 at intraperitoneal dose of 0.38 mg/kg; type: functional
Mus musculus [9] = assay: Tested for antiinflammatory activity on mouse type II collagen arthritis as Paw swelling of all animals in each group on day 23 at intraperitoneal dose of 6 mg/kg; type: functional
[10] = Concentration required to inhibit the growth of chang liver cells.; type: functional; conditions: Homo sapiens
Mus musculus [11] = assay: Tested for antiinflammatory activity on mouse type II collagen arthritis as Paw swelling of all animals in each group on day 30 at intraperitoneal dose of 3 mg/kg; type: functional
Mus musculus [12] = assay: Incidence of disease (mouse type II collagen) was scored as the percentage of animals within each experimental group that exhibited joint or limb inflammation on day 44 at intraperitoneal dose of 0.75 mg/kg; type: functional
Mus musculus [13] = assay: Incidence of disease (mouse type II collagen) was scored as the percentage of animals within each experimental group that exhibited joint or limb inflammation on day 37 at intraperitoneal dose of 1.5 mg/kg; type: functional
Mus musculus [14] = assay: Tested for antiinflammatory activity on mouse type II collagen arthritis as Paw swelling of all animals in each group on day 37 at intraperitoneal dose of 6 mg/kg; type: functional
Mus musculus [15] = assay: Incidence of disease (mouse type II collagen) was scored as the percentage of animals within each experimental group that exhibited joint or limb inflammation on day 23 at intraperitoneal dose of 3 mg/kg; type: functional
Mus musculus [16] = assay: Tested for antiinflammatory activity on mouse type II collagen arthritis as Paw swelling of all animals in each group on day 37 at intraperitoneal dose of 1.5 mg/kg; type: functional
Mus musculus [17] = assay: Incidence of disease (mouse type II collagen) was scored as the percentage of animals within each experimental group that exhibited joint or limb inflammation on day 30 at intraperitoneal dose of 1.5 mg/kg; type: functional
Mus musculus [18] = assay: Incidence of disease (mouse type II collagen) was scored as the percentage of animals within each experimental group that exhibited joint or limb inflammation on day 23 at intraperitoneal dose of 1.5 mg/kg; type: functional
Mus musculus [19] = assay: Tested for antiinflammatory activity on mouse type II collagen arthritis as Paw swelling of all animals in each group on day 37 at intraperitoneal dose of 0.75 mg/kg; type: functional
Mus musculus [20] = assay: Incidence of disease (mouse type II collagen) was scored as the percentage of animals within each experimental group that exhibited joint or limb inflammation on day 37 at intraperitoneal dose of 0.38 mg/kg; type: functional
Mus musculus [21] = assay: Tested for antiinflammatory activity on mouse type II collagen arthritis as Paw swelling of all animals in each group on day 30 at intraperitoneal dose of 1.5 mg/kg; type: functional
Mus musculus [22] = assay: Incidence of disease (mouse type II collagen) was scored as the percentage of animals within each experimental group that exhibited joint or limb inflammation on day 37 at intraperitoneal dose of 0.75 mg/kg; type: functional
Mus musculus [23] = assay: Tested for antiinflammatory activity on mouse type II collagen arthritis as Paw swelling of all animals in each group on day 23 at intraperitoneal dose of 0.75 mg/kg; type: functional
Mus musculus [24] = assay: Incidence of disease (mouse type II collagen) was scored as the percentage of animals within each experimental group that exhibited joint or limb inflammation on day 44 at intraperitoneal dose of 0.38 mg/kg; type: functional
Mus musculus [25] = assay: Tested for antiinflammatory activity on mouse type II collagen arthritis as Paw swelling of all animals in each group on day 30 at intraperitoneal dose of 6 mg/kg; type: functional
Mus musculus [26] = assay: Tested for antiinflammatory activity on mouse type II collagen arthritis as Paw swelling of all animals in each group on day 44 at intraperitoneal dose of 0.38 mg/kg; type: functional
L1210 = assay: Concentration required to inhibit the growth of L1210 cells.; type: functional, cell-based; conditions: Mus musculus
Mus musculus [27] = assay: Tested for antiinflammatory activity on mouse type II collagen arthritis as Paw swelling of all animals in each group on day 23 at intraperitoneal dose of 0.38 mg/kg; type: functional
Mus musculus [28] = assay: Tested for antiinflammatory activity on mouse type II collagen arthritis as Paw swelling of all animals in each group on day 44 at intraperitoneal dose of 0.75 mg/kg; type: functional
Mus musculus [29] = assay: Tested for antiinflammatory activity on mouse type II collagen arthritis as Paw swelling of all animals in each group on day 44 at intraperitoneal dose of 6 mg/kg; type: functional
Mus musculus [30] = assay: Incidence of disease (mouse type II collagen) was scored as the percentage of animals within each experimental group that exhibited joint or limb inflammation on day 44 at intraperitoneal dose of 3 mg/kg; type: functional
Mus musculus [31] = assay: Tested for antiinflammatory activity on mouse type II collagen arthritis as Paw swelling of all animals in each group on day 44 at intraperitoneal dose of 1.5 mg/kg; type: functional
Mus musculus [32] = assay: Incidence of disease (mouse type II collagen) was scored as the percentage of animals within each experimental group that exhibited joint or limb inflammation on day 44 at intraperitoneal dose of 1.5 mg/kg; type: functional
Mus musculus [33] = assay: Tested for antiinflammatory activity on mouse type II collagen arthritis as Paw swelling of all animals in each group on day 37 at intraperitoneal dose of 3 mg/kg; type: functional
Mus musculus [34] = assay: Tested for antiinflammatory activity on mouse type II collagen arthritis as Paw swelling of all animals in each group on day 44 at intraperitoneal dose of 3 mg/kg; type: functional
Mus musculus [35] = assay: Incidence of disease (mouse type II collagen) was scored as the percentage of animals within each experimental group that exhibited joint or limb inflammation on day 30 at intraperitoneal dose of 0.75 mg/kg; type: functional
Mus musculus [36] = assay: Incidence of disease (mouse type II collagen) was scored as the percentage of animals within each experimental group that exhibited joint or limb inflammation on day 37 at intraperitoneal dose of 6 mg/kg (1 animal died); type: functional
Mus musculus [37] = assay: Incidence of disease (mouse type II collagen) was scored as the percentage of animals within each experimental group that exhibited joint or limb inflammation on day 37 at intraperitoneal dose of 3 mg/kg; type: functional
Mus musculus [38] = assay: Tested for antiinflammatory activity on mouse type II collagen arthritis as Paw swelling of all animals in each group on day 37 at intraperitoneal dose of 0.38 mg/kg; type: functional
Mus musculus [39] = assay: Tested for antiinflammatory activity on mouse type II collagen arthritis as Paw swelling of all animals in each group on day 30 at intraperitoneal dose of 0.75 mg/kg; type: functional
Mus musculus [40] = assay: Tested for antiinflammatory activity on mouse type II collagen arthritis as Paw swelling of all animals in each group on day 23 at intraperitoneal dose of 5 mg/kg; type: functional
Mus musculus [41] = assay: Incidence of disease (mouse type II collagen) was scored as the percentage of animals within each experimental group that exhibited joint or limb inflammation on day 23 at intraperitoneal dose of 10 mg/kg; type: functional
Mus musculus [42] = assay: Incidence of disease (mouse type II collagen) was scored as the percentage of animals within each experimental group that exhibited joint or limb inflammation on day 23 at intraperitoneal dose of 5 mg/kg; type: functional
Mus musculus [43] = assay: Incidence of disease (mouse type II collagen) was scored as the percentage of animals within each experimental group that exhibited joint or limb inflammation on day 30 at intraperitoneal dose of 10 mg/kg; type: functional
Mus musculus [44] = assay: Tested for antiinflammatory activity on mouse type II collagen arthritis as Paw swelling of all animals in each group on day 37 at intraperitoneal dose of 10 mg/kg; type: functional
Mus musculus [45] = assay: Tested for antiinflammatory activity on mouse type II collagen arthritis as Paw swelling of all animals in each group on day 30 at intraperitoneal dose of 10 mg/kg; type: functional
Mus musculus [46] = assay: Incidence of disease (mouse type II collagen) was scored as the percentage of animals within each experimental group that exhibited joint or limb inflammation on day 44 at intraperitoneal dose of 5 mg/kg; type: functional
Mus musculus [47] = assay: Tested for antiinflammatory activity on mouse type II collagen arthritis as Paw swelling of all animals in each group on day 44 at intraperitoneal dose of 10 mg/kg; type: functional
Mus musculus [48] = assay: Incidence of disease (mouse type II collagen) was scored as the percentage of animals within each experimental group that exhibited joint or limb inflammation on day 44 at intraperitoneal dose of 10 mg/kg; type: functional
Mus musculus [49] = assay: Tested for antiinflammatory activity on mouse type II collagen arthritis as Paw swelling of all animals in each group on day 44 at intraperitoneal dose of 5 mg/kg; type: functional
Mus musculus [50] = assay: Incidence of disease (mouse type II collagen) was scored as the percentage of animals within each experimental group that exhibited joint or limb inflammation on day 37 at intraperitoneal dose of 5 mg/kg; type: functional
Mus musculus [51] = assay: Incidence of disease (mouse type II collagen) was scored as the percentage of animals within each experimental group that exhibited joint or limb inflammation on day 37 at intraperitoneal dose of 10 mg/kg; type: functional
Mus musculus [52] = assay: Incidence of disease (mouse type II collagen) was scored as the percentage of animals within each experimental group that exhibited joint or limb inflammation on day 30 at intraperitoneal dose of 5 mg/kg; type: functional
Mus musculus [53] = assay: Tested for antiinflammatory activity on mouse type II collagen arthritis as Paw swelling of all animals in each group on day 23 at intraperitoneal dose of 10 mg/kg; type: functional
Mus musculus [54] = assay: Tested for antiinflammatory activity on mouse type II collagen arthritis as Paw swelling of all animals in each group on day 30 at intraperitoneal dose of 5 mg/kg; type: functional
Mus musculus [55] = assay: Tested for antiinflammatory activity on mouse type II collagen arthritis as Paw swelling of all animals in each group on day 37 at intraperitoneal dose of 5 mg/kg; type: functional

For `C=CCN(Cc1cnc2nc(N)nc(N)c2c1C)c1ccc(C(=O)NC(CCC(=O)O)C(=O)O)cc1` (stereo unspecified), the Animals (Mus musculus [1]) was 0%, the Animals (Mus musculus [2]) was 0% and the Paw swelling (Mus musculus [3]) was 2.17 mm. It also gave an Animals (Mus musculus [4]) of 0%, an Animals (Mus musculus [5]) of 0% and an Animals (Mus musculus [6]) of 0%. It also gave an Animals (Mus musculus [7]) of 0%, an Animals (Mus musculus [8]) of 0% and a Paw swelling (Mus musculus [9]) of 2.09 mm. For the same molecule, the IC50 [10] was 0.03 µM, the Paw swelling (Mus musculus [11]) was 2.12 mm and the Animals (Mus musculus [12]) was 50%. The Animals (Mus musculus [13]) was 25%, the Paw swelling (Mus musculus [14]) was 2.15 mm and the Animals (Mus musculus [15]) was 0%. The Paw swelling (Mus musculus [16]) was 2.26 mm, the Animals (Mus musculus [17]) was 12% and the Animals (Mus musculus [18]) was 0%. It also gave a Paw swelling (Mus musculus [19]) of 2.33 mm, an Animals (Mus musculus [20]) of 38% and a Paw swelling (Mus musculus [21]) of 2.24 mm. For the same molecule, the Animals (Mus musculus [22]) was 38%, the Paw swelling (Mus musculus [23]) was 2.17 mm and the Animals (Mus musculus [24]) was 62%. For the same molecule, the Paw swelling (Mus musculus [25]) was 2.1 mm, the Paw swelling (Mus musculus [26]) was 2.39 mm and the IC50 (L1210) was 0.0034 µM. For the same molecule, the Paw swelling (Mus musculus [27]) was 2.17 mm, the Paw swelling (Mus musculus [28]) was 2.36 mm and the Paw swelling (Mus musculus [29]) was 2.13 mm. The Animals (Mus musculus [30]) was 0%, the Paw swelling (Mus musculus [31]) was 2.32 mm and the Animals (Mus musculus [32]) was 50%. The Paw swelling (Mus musculus [33]) was 2.14 mm, the Paw swelling (Mus musculus [34]) was 2.16 mm and the Animals (Mus musculus [35]) was 25%. For the same molecule, the Animals (Mus musculus [36]) was 0%, the Animals (Mus musculus [37]) was 0% and the Paw swelling (Mus musculus [38]) was 2.3 mm. For the same molecule, the Paw swelling (Mus musculus [39]) was 2.22 mm.

For `C#CCC(Cc1cnc2nc(N)nc(N)c2c1C)c1ccc(C(=O)NC(CCC(=O)O)C(=O)O)cc1` (stereo unspecified), the Paw swelling (Mus musculus [40]) was 2.18 mm, the Animals (Mus musculus [41]) was 14% and the Animals (Mus musculus [42]) was 12%. The Animals (Mus musculus [43]) was 57%, the Paw swelling (Mus musculus [44]) was 2.65 mm and the Paw swelling (Mus musculus [45]) was 2.37 mm. For the same molecule, the Animals (Mus musculus [46]) was 88%, the Paw swelling (Mus musculus [47]) was 2.7 mm and the Animals (Mus musculus [48]) was 71%. It also gave a Paw swelling (Mus musculus [49]) of 2.64 mm, an Animals (Mus musculus [50]) of 62% and an Animals (Mus musculus [51]) of 71%. The Animals (Mus musculus [52]) was 12%, the Paw swelling (Mus musculus [53]) was 2.19 mm and the Paw swelling (Mus musculus [54]) was 2.17 mm. For the same molecule, the Paw swelling (Mus musculus [55]) was 2.45 mm.
